Assay results taken from US20140213604A1, “PROTEIN KINASE C AS A TARGET FOR THE TREATMENT OF RESPIRATORY SYNCYTIAL VIRUS” (priority 2002, published 2014).
Like-named read-outs stand apart in the source and are kept apart here. Where a SMILES comes first, the peptide text is derived from it. The star is where a group is joined. Myristoyl = CCCCCCCCCCCCCC(=O)*

Columns and labels:
[1] = tested on: RSV infection of NHBE cells; assay: RSV infection of NHBE cells treated with signaling inhibitors, FITC anti-RSV mab staining and cell counting; format: cell-based, respiratory syncytial virus (RSV); settings: inhibitor 2 h before and 48 h after RSV, AG 490 50 μM, PD98059 80 μM, RO318220 3 μM, Wortmannin 300 nM
Method: NHBE cells were treated with different inhibitors for 2 hours at concentration as: AG 490 (50 μM), PD98059 (80 μM), RO318220 (3 μM), and Wortmannin (300 nM). DMSO was used as a mock control. The inhibitors were removed and the cells were infected with RSV for 2 hours. After the RSV was removed, the growth medium with the same concentration of inhibitors was added to the cells for 48 hours. The cells were rinsed with PBS prior to staining with FITC-labeled Anti-RSV monoclonal antibody (mab) (CHEMICON, Temecula, Calif.). The total cells and RSV positive cells were counted randomly from 15 to 20 different spots.
To determine if different signaling molecules related to the ERK pathway are required for a successful RSV infection, primary NHBE cells were exposed to various inhibitors previously to being infected with a sucrose-purified RSV preparation. […] Also, other PKC isoforms are activated later during the infection, which could potentially play a role in the late phase of ERK activation (Monick, M. et al., J Immunol, 166(4):2681-2687, 2001).

[2] = tested on: RSV infection of NHBE cells; assay: RSV infection of NHBE cells pre-treated with PKC inhibitors, single cell immunofluorescence assay; format: cell-based, respiratory syncytial virus (RSV); settings: for number of infected cells, dose dependence: inhibitor 30 min before infection; for IC50: 16 h, read-out: concentration at which 50% inhibition of infected cells was reached

Compound	number of RSV infected cells [1]	number of infected cells, dose dependence ([2]; NHBE cells, RSV 1 MOI)	also measured
N#C/C(=C/c1ccc(O)c(O)c1)C(=O)NCc1ccccc1 [AG490]	significant reduction	–	number of RSV infected cells ([1]; listed as AG 490): substantially decrease
COc1cccc(-c2cc(=O)c3ccccc3o2)c1N [PD98059]	significant reduction	–	–
CCCCCCCCCCCCCC(=O)N[C@@H](Cc1ccccc1)C(=O)N[C@@H](C)C(=O)N[C@@H](CCCNC(=N)N)C(=O)N[C@@H](CCCCN)C(=O)NCC(=O)N[C@@H](C)C(=O)N[C@@H](CC(C)C)C(=O)N[C@@H](CCCNC(=N)N)C(=O)N[C@@H](CCC(N)=O)C(N)=O [N-Myr-Phe-Ala-Arg-Lys-Gly-Ala-Leu-Arg-Gln] (Myristoyl-FARKGALRQ-NH2; N-terminus and C-terminus assumed)	–	–	solubility in water: soluble in water
COc1ccc2c(c[n+](C)c3c4cc5c(cc4ccc23)OCO5)c1OC [Chelerythrine]	–	reduced in a dose-dependent manner	IC50 ([2]; human respiratory syncytial virus, NHBE): 7.5 µM
Cn1cc(C2=C(c3cn(CCCSC(=N)N)c4ccccc34)C(=O)NC2=O)c2ccccc21 [Ro318220]	significant reduction	–	number of RSV infected cells ([1]; listed as RO318220): substantially decrease
Calphostin C	–	reduced in a dose-dependent manner	IC50 ([2]; NHBE cells, RSV 1 MOI): 0.375 µM
